The experiment deals with EGFR (UniProt P00533). Nature of the experiment: Inhibition of EGFR Kinase Activity.

As a reminder, the IC50 is the concentration needed to halve the response being measured. Low values mean greater potency, high ones weaker potency.

SMILES strings stand for the structures.

EGFR, sequence (P00533 whole entry, looked up): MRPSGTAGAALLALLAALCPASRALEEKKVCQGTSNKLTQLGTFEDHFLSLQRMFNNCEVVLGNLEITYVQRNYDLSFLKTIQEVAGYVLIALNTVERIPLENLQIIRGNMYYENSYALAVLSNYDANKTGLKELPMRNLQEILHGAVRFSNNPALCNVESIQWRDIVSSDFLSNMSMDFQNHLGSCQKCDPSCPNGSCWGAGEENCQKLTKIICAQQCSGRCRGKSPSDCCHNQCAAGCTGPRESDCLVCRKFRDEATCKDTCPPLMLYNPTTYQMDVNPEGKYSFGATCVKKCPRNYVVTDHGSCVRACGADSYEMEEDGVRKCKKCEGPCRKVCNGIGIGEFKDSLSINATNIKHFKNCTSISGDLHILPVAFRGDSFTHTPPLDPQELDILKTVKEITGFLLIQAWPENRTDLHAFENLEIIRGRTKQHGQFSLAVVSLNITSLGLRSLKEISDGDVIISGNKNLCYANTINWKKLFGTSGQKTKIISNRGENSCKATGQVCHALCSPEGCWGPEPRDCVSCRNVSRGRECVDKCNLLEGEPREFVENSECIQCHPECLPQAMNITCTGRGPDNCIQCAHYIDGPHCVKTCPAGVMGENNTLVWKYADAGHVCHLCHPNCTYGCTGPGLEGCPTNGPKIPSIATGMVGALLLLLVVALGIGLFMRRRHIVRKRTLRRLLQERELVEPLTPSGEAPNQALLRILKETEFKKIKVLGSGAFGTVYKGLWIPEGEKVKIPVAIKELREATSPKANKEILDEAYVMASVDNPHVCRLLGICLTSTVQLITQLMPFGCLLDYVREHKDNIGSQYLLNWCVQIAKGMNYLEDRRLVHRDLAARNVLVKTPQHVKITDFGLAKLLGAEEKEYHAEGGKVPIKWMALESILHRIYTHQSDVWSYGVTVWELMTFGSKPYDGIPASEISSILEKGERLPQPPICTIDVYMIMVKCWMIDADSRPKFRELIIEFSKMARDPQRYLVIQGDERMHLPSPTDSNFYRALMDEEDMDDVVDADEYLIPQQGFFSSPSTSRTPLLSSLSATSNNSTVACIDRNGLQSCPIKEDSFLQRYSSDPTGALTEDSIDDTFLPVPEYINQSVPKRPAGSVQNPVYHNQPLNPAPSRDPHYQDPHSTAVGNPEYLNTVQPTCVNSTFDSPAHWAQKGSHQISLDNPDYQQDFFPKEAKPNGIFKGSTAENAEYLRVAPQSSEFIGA

Turning to `COc1ccc(N2C(=O)N(c3cccc(C#N)c3)c3nc(Nc4ccccc4)ncc3C2C)cc1` (configuration not stated), the IC50 is less than 10 µM. With `COc1ccc(N2C(=O)N(c3ccccc3)c3nc(N(C(C)=O)c4ccccc4)ncc3C2C)cc1` (configuration not stated), the IC50 is less than 10 µM. Under `COc1ccc(N2C(=O)N([C@H]3CC[C@H](O)CC3)c3nc(Nc4ccccc4)ncc3C2C)cc1` (some centres not stated) stands less than 10 µM; under `COc1ccc(N2C(=O)N(c3ccccc3)c3nc(Nc4ccccc4)ncc3[C@@H]2C)cc1`, less than 10 µM; under `COc1ccc(N2C(=O)N(c3ccccc3)c3nc(Nc4ccccc4)ncc3C2C)cc1` (configuration not stated), less than 10 µM. Under `COc1ccc(N2C(=O)N(c3ccccc3)c3nc(Nc4ccccc4)ncc3C2C)c(F)c1` (configuration not stated) stands less than 10 µM; under `COc1ccc(N2C(=O)N(c3cccc(C#N)c3)c3nc(Nc4ccccc4)ncc3C2C)c(F)c1` (configuration not stated), less than 10 µM; under `COc1ccc(N2C(=O)N([C@@H](C)c3ccccc3)c3nc(Nc4ccccc4)ncc3C2C)cc1` (some centres not stated), less than 10 µM.

For `COc1ccc(N2C(=O)N(c3ccccc3)c3nc(Nc4ccccc4)ncc3C2C(C)C)cc1` (configuration not stated), the IC50 was less than 10 µM. Under `COc1ccc(N2C(=O)N(c3cccc(C(N)=O)c3)c3nc(Nc4ccccc4)ncc3C2C)cc1` (configuration not stated) stands less than 10 µM; under `COc1ccc(N2C(=O)N(c3cccc(C(N)=O)c3)c3nc(Nc4ccccc4)ncc3C2C)c(F)c1` (configuration not stated), less than 10 µM; under `COc1ccc(N2C(=O)N(c3ccccc3)c3nc(Nc4ccccc4)ncc3[C@H]2C)cc1`, less than 10 µM.

Compound `COc1ccc(N2C(=O)N([C@H](C)CO)c3nc(Nc4ccccc4)ncc3[C@@H]2C)cc1` came in with an IC50 of less than 10 µM.

In the case of `COc1ccc(N2C(=O)N(c3ccc(OC)cc3)C(C)c3cnc(Nc4ccccc4)nc32)cc1` (configuration not stated), the IC50 is less than 10 µM. For `COc1ccc(Cl)c(N2C(=O)N(c3ccccc3)c3nc(Nc4ccccc4)ncc3C2C)c1` (configuration not stated), the IC50 was less than 10 µM. With `CCC1c2cnc(Nc3ccccc3)nc2N(c2ccccc2)C(=O)N1c1ccc(OC)cc1` (configuration not stated), the IC50 was less than 10 µM. As to `COc1ccc(N2C(=O)N([C@H](C)CO)c3nc(Nc4ccccc4)ncc3[C@H]2C)cc1`, the IC50 is less than 10 µM.

The values above are taken from the Kinase Knowledgebase extract (Sharma et al. 2016).
